Series [1] in a line: Half life in Sprague-Dawley rat at 5 mg/kg, iv. In kind it is ADME, organism-based. Conditions: in vivo.
Series [2] concerns Rattus norvegicus. The series can be described thus: Antifibrotic activity in bleomycin-induced Sprague-Dawley rat pulmonary fibrosis model assessed as decrease in end-expiratory pause at 2.5 to 5 mg/kg, ip administered daily for 28 days. In kind it is functional, organism-based. The following applies: dose 2.5-5 mg/kg, time 28.0 day.
Series [3] addresses cGMP-dependent 3',5'-cyclic phosphodiesterase (Homo sapiens, UniProt O00408). Put plainly: Inhibition of PDE2A (580 to 919 residues) (unknown origin) expressed in Escherichia coli BL21 using [3H]-cGMP as substrate measured for 15 mins by liquid scintillation counter method.
Series [4] addresses 3',5'-cyclic-AMP phosphodiesterase 4B (Homo sapiens, UniProt Q07343). The series can be described thus: Inhibition of PDE4B2 (152 to 487 residues) (unknown origin) expressed in Escherichia coli BL21 measured for 15 mins by liquid scintillation counter method.
In series [5] the target is cGMP-specific 3',5'-cyclic phosphodiesterase (Homo sapiens, UniProt O76074). The series can be described thus: Inhibition of PDE5A1 (535 to 860 residues) (unknown origin) expressed in Escherichia coli BL21 [3H]-cGMP as substrate measured for 15 mins by liquid scintillation counter method.
Series [6] has as its target T1, High affinity cGMP-specific 3',5'-cyclic phosphodiesterase 9A (Homo sapiens, UniProt O76083). Put plainly: Inhibition of PDE9A2 (181 to 506 residues) (unknown origin) expressed in Escherichia coli BL21 using [3H]-cGMP as substrate measured for 15 mins by liquid scintillation counter method.
The nature of series [7]: AUC (0 to infinity) in Sprague-Dawley rat at 5 mg/kg, iv. The arrangement: time infinity, dose 5 mg/kg, route iv. The series is classed as ADME, organism-based. The following applies: in vivo.
Series [8] in a line: MRT (0 to t) in Sprague-Dawley rat at 5 mg/kg, iv. The series is classed as ADME, organism-based. The following applies: in vivo.
In series [9] the test system is Rattus norvegicus. Put plainly: Antifibrotic activity in bleomycin-induced Sprague-Dawley rat pulmonary fibrosis model assessed as decrease in end-expiratory pause at 150 mg/kg, po administered daily for 28 days. The series is classed as functional, organism-based. Conditions: time 28.0 day.
Series [10] relates to Rattus norvegicus. Put plainly: Antifibrotic activity in bleomycin-induced Sprague-Dawley rat lung fibrosis model assessed as reduced septal enlargement at 5 mg/kg, ip administered daily for 28 days by hematoxylin and eosin staining based histopathological analysis. Conditions: time 28.0 day. In kind it is functional, organism-based.
For series [11], the system named is Rattus norvegicus. Put plainly: Antifibrotic activity in bleomycin-induced Sprague-Dawley rat lung fibrosis model assessed as decrease in alpha-smooth muscle actin level at 2.5 to 5 mg/kg, ip administered daily for 28 days by Western blot analysis. In kind it is functional, organism-based. Conditions: dose 2.5-5 mg/kg, time 28.0 day.
Series [12] relates to Rattus norvegicus. Put plainly: Antifibrotic activity in bleomycin-induced Sprague-Dawley rat lung fibrosis model assessed as decrease in fibronectin level at 2.5 to 5 mg/kg, ip administered daily for 28 days by Western blot analysis. The series is classed as functional, organism-based. The following applies: dose 2.5-5 mg/kg, time 28.0 day.
In another series the test system is HLF. Put plainly: Antifibrotic activity in TGF-beta induced HLF cell assessed as suppression of FN level at 10 uM incubated for 48 hrs by Western blot analysis. The series is classed as functional, cell-based. Conditions: Homo sapiens. A general note: In western blotting, separated proteins are transferred to a membrane and probed.
Another series deals with Cytochrome P450 2C9 (Homo sapiens, UniProt P11712). The series can be described thus: Inhibition of CYP2C9 in human liver microsomes at 25 uM in the presence of NADPH. The series is classed as ADME, Microsome. On the technique in general: Liver microsomes are vesicles of endoplasmic reticulum, rich in cytochrome P450 enzymes.
Chain of Cytochrome P450 2C9 (P11712 whole entry): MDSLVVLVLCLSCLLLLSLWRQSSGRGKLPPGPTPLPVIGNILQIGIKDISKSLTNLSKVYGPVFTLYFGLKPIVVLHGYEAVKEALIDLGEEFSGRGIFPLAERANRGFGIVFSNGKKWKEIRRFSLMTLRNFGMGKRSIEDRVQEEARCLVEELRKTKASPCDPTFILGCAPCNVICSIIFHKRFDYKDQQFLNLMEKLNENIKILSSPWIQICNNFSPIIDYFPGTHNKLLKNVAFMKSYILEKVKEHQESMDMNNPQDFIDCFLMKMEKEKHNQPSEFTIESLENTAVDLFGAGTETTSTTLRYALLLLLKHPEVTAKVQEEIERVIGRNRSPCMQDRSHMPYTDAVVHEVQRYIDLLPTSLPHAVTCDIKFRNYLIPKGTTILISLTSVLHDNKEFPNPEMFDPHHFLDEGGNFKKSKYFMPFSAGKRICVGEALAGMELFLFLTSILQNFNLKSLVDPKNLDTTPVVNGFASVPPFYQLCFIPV
For series [13], the target named is Voltage-gated inwardly rectifying potassium channel KCNH2 (Homo sapiens, UniProt Q12809). Put plainly: Inhibition of hERG ion channel expressed in CHO cells by automated patch clamp electrophysiology method. The series is classed as toxicity, cell-based. For orientation: Block of hERG is tested as a sign of cardiac risk.
A short description of series [14]: Acute toxicity in overnight fasted KM mouse at 2000 mg/kg, po dosed daily for 14 days. The series is classed as organism-based. The following applies: in vivo, 336 h, time 14 day.
Series [15] concerns the target cGMP-inhibited 3',5'-cyclic phosphodiesterase 3A (Homo sapiens, UniProt Q14432). Put plainly: Inhibition of PDE3A (679 to 1087 residues) (unknown origin) expressed in Escherichia coli BL21 using [3H]-cAMP as substrate at 10000 nM measured for 15 mins by liquid scintillation counter method.
Series [16] concerns the target High affinity cAMP-specific and IBMX-insensitive 3',5'-cyclic phosphodiesterase 8A (Homo sapiens, UniProt O60658). Put plainly: Inhibition of PDE8A (480 to 820 residues) (unknown origin) expressed in Escherichia coli BL21 using [3H]-cAMP as substrate at 10000 nM measured for 15 mins by liquid scintillation counter method.
Series [17] deals with T1, High affinity cGMP-specific 3',5'-cyclic phosphodiesterase 9A. The series can be described thus: Inhibition of PDE9A (181 to 506 residues) (unknown origin) expressed in Escherichia coli BL21 using [3H]-cGMP as substrate at 10000 nM measured for 15 mins by liquid scintillation counter method.

Structures are written as SMILES. Calls of active or inactive are those of the source. The calls are words filed in the database; no cut-off is given here.

T1 sequence (O76083 whole entry, the tested form may be a part): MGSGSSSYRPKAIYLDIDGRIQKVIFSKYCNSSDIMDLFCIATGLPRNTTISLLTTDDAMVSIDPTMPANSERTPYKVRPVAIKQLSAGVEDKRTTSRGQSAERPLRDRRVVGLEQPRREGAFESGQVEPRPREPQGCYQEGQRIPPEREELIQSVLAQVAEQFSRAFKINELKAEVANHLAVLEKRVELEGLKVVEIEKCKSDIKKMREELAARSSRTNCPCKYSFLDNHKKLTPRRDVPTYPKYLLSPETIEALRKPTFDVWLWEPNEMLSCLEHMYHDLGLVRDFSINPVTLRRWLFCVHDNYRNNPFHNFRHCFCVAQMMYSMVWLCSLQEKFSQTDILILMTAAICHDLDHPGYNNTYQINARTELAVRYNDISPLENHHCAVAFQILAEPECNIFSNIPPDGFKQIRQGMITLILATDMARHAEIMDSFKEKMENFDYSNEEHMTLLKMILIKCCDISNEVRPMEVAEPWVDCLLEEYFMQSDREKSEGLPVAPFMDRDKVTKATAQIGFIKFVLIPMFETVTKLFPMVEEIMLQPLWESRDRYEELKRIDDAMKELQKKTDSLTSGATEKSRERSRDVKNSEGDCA
Chain of 3',5'-cyclic-AMP phosphodiesterase 4B (Q07343 whole entry, the tested form may be a part): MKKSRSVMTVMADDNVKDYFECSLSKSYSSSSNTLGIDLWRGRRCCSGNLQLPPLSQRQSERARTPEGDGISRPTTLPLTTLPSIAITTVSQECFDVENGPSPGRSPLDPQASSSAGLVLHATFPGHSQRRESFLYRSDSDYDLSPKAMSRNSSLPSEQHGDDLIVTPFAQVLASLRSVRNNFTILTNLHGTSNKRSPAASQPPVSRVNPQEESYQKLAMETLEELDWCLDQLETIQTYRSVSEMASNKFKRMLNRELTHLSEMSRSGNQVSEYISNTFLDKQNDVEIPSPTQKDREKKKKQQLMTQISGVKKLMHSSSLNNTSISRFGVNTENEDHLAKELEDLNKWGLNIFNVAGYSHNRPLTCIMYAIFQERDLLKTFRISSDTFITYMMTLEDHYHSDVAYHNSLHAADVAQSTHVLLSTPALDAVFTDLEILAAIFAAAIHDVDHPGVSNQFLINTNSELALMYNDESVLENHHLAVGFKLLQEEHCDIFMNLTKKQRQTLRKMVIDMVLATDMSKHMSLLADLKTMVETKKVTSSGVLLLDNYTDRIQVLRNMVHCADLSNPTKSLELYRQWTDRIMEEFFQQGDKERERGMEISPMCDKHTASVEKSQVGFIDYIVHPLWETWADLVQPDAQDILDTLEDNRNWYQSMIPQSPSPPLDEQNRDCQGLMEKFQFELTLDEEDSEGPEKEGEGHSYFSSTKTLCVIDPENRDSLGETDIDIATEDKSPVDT
Chain of cGMP-inhibited 3',5'-cyclic phosphodiesterase 3A (Q14432 whole entry, the tested form may be a part): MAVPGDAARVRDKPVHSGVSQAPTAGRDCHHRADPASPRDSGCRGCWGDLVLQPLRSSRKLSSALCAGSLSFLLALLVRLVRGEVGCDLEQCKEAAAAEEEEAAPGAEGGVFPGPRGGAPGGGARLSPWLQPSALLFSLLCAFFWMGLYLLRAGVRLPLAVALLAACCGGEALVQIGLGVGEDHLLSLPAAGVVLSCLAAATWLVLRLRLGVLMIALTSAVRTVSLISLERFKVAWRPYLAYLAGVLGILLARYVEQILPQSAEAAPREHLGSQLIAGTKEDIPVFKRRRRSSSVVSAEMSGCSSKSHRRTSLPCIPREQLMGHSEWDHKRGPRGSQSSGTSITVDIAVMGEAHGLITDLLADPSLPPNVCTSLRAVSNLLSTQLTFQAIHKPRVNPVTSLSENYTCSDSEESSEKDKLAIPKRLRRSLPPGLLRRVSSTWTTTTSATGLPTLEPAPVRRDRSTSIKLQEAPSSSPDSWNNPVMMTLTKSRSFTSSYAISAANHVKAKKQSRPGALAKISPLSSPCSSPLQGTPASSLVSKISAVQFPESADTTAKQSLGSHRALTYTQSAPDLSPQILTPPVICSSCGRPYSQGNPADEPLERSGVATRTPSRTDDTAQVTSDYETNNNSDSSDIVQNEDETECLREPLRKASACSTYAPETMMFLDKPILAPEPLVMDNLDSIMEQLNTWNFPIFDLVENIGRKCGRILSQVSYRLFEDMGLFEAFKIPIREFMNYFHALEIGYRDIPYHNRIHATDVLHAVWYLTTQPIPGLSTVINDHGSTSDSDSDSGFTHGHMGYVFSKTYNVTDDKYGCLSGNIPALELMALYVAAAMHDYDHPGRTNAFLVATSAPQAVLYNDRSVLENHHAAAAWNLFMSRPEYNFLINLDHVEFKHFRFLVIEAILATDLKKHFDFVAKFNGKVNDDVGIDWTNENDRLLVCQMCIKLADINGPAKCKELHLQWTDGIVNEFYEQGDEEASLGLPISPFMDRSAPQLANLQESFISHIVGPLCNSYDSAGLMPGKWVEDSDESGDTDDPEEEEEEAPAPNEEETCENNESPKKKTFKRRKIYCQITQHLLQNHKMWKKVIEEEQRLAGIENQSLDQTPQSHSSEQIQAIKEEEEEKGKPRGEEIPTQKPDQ
Chain of High affinity cAMP-specific and IBMX-insensitive 3',5'-cyclic phosphodiesterase 8A (O60658 whole entry, the tested form may be a part): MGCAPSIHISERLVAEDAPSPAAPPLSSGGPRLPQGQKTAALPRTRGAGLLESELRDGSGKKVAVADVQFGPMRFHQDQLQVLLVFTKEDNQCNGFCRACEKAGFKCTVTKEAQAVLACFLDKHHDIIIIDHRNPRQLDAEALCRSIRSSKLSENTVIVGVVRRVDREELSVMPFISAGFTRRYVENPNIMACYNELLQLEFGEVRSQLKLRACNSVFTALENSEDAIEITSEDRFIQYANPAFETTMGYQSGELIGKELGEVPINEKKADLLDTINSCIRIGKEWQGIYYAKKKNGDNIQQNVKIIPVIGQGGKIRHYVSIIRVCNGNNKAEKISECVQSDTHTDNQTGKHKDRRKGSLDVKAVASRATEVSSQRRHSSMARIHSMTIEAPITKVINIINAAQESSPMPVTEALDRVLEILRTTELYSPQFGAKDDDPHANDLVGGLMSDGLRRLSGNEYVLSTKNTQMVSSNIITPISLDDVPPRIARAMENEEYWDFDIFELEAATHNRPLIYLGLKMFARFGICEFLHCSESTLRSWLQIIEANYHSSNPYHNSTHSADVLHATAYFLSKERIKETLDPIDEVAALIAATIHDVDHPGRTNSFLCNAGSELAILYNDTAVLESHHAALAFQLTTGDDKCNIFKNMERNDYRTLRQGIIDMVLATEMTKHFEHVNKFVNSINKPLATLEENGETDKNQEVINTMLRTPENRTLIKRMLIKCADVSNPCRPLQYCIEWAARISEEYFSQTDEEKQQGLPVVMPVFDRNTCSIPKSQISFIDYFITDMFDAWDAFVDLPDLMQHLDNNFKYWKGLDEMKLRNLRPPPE
Chain of cGMP-dependent 3',5'-cyclic phosphodiesterase (O00408 whole entry, the tested form may be a part): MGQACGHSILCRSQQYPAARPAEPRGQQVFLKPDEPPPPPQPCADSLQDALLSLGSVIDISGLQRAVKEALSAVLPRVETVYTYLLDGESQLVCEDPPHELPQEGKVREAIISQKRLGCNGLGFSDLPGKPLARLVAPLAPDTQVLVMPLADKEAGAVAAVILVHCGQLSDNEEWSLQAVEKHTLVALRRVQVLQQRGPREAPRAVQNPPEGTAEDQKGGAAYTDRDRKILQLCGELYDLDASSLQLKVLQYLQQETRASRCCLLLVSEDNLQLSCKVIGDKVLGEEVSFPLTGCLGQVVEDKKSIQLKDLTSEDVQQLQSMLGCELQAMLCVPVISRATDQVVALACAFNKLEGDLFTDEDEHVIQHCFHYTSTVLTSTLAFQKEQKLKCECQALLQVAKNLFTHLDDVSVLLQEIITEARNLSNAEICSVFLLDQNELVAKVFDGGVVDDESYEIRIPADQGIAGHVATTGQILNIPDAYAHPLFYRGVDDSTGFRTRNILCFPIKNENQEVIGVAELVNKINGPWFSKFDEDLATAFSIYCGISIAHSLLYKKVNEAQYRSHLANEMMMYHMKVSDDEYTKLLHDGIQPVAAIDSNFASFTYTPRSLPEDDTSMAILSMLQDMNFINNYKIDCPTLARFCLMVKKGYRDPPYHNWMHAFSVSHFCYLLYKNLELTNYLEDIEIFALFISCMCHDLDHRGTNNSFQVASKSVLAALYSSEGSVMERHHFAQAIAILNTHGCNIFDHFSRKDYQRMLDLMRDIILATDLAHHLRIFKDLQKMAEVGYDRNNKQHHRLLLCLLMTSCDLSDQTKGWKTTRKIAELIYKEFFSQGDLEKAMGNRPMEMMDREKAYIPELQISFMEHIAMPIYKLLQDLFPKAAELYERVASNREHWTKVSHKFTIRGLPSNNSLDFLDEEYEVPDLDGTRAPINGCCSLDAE

As to `CC1=C(C(=O)O[C@H](C)c2ccccc2)C(c2ccc3c(cnn3C)c2)C(C(=O)O[C@H](C)c2ccccc2)=C(C)N1`, in series [1], the half-life (in general, the time in which the quantity being followed falls by half) is 3.67 h. Moreover, the outcome with Rattus norvegicus [2], with Rattus norvegicus [9], in the series with Rattus norvegicus [10], in the series with Rattus norvegicus [11], in the series with Rattus norvegicus [12] and in the series on HLF was Active. Moreover, the IC50 (usually the point on the concentration scale where inhibition reaches its midpoint) in series [3] is 5.13 µM; in series [4], 0.619 µM; in series [5], 1.81 µM; in [6], greater than 10 µM; at Cytochrome P450 2C9 it was 4.6 µM; in series [13], greater than 40 µM. Besides, the AUC(0-inf) (usually total exposure, with the tail of the curve extrapolated) in series [7] was 4590 ng·h/mL. For the same compound, the mean residence time MRT last (in general, the average time that molecules of a dose stay in the body) in series [8] was found to be 3.44 h. In addition, in series [14], the Activity result is listed as “Non-Toxic”. For the same compound, the inhibition in series [15], in series [16] and in series [17] was less than 50% throughout.

These data come from ChEMBL document CHEMBL5154941, “Structural Modifications of Nimodipine Lead to Novel PDE1 Inhibitors with Anti-pulmonary Fibrosis Effects” (J Med Chem, 2022).
